Data: patent US4418065A, “Halophenyl-pyridyl-allylamine derivatives and use” (priority 1979, dated 1983)
pEC50: −log10 of the molar value. Counter-ions that a name gives are not always drawn. Like-named read-outs stand apart in the source and are kept apart here.

What was measured:
[1] = tested on: neuronal uptake of 5-hydroxytryptamine; test: Inhibition of the uptake of ^14 C-5-HT in vivo (i.p. administration, hypothalamus slices); set-up: species or system mouse; conditions: for ED50: Mus musculus, ip, 0.5 h, read-out: Uptake of ^14 C-5-HT in vivo ED50; for Percentage inhibition of ^14 C-5-HT uptake at the highest dose examined: in vivo, at the highest dose examined (the > value, μmole/kg)
Method: (§1) The test substances were administered intraperitoneally half an hour before the animals were killed. […] The incubation time was 5 minutes with 5 minutes of preincubation before the labelled amines were added. The slices were dissolved in Soluene® and the amounts of radioactive amines taken up were determined by liquid scintillation. […] Active uptake is defined as that part of the radioactive uptake which is inhibited by a high concentration of cocaine.

[2] = tested on: neuronal uptake of noradrenaline; test: Inhibition of the uptake of ^3 H-NA in vivo (i.p. administration, hypothalamus slices); set-up: species or system mouse; conditions: for ED50: Mus musculus, ip, 0.5 h, read-out: Uptake of ^3 H-NA in vivo ED50; for Percentage inhibition of ^3 H-NA uptake at the highest dose examined: in vivo, at the highest dose examined (the > value, μmole/kg)
Method: as §1

[3] = tested on: neuronal uptake of 5-hydroxytryptamine; test: Inhibition of the uptake of ^14 C-5-HT in vitro (slices of mouse midbrain); format: biochemical; conditions: for pEC50: in vitro, mouse brain slices, 1×10^-7 M ^14 C-5-HT, 5 min
Method: as §1
(§2) In the in vitro method slices of mouse midbrain were preincubated for 5 minutes with solution of the compound to be tested and then incubated as described above.

[4] = tested on: neuronal uptake of noradrenaline; test: Inhibition of the uptake of ^3 H-NA in vitro (slices of mouse midbrain); format: biochemical; conditions: for pEC50: mouse brain slices, 1×10^-7 M ^3 H-NA, 5 min
Method: as §1, §2

[5] = i.p., half an hour before the animals were killed, 50 percent decrease of active uptake

pEC50 [3]	pEC50 [4]	Structure (SMILES)	ED50 [1, 5]	ED50 [2, 5]	further results
–	–	CN(C)CC=C(c1cccnc1)c1ccc(Cl)cc1Cl [2,4-di Cl CH3 E/Z 1:1, 3-(2,4-dichlorophenyl)-N,N-dimethyl-3-(3-pyridyl)-allylamine]	42 µmol/kg	–	ED50 [2]: 63 µmol/kg
6.30	6.05	CNCC=C(c1cccnc1)c1ccc(Cl)cc1Cl [2,4-di Cl H E/Z 1:1, 3-(2,4-dichlorophenyl)-N-methyl-3-(3-pyridyl)-allylamine]	60 µmol/kg	82 µmol/kg	–
5.46	5.66	CN(C)CC=C(c1cccnc1)c1ccccc1Br [2-Br CH3 E/Z 1:1, 3-(2-bromophenyl)-N,N-dimethyl-3-(3-pyridyl)-allylamine]	> 126 µmol/kg	79 µmol/kg	–
–	–	CN(C)C/C=C(\c1ccc(Br)cc1)c1cccnc1 [4-Br CH3 E, reference compound]	> 98 µmol/kg	25 µmol/kg	Percentage inhibition of ^14 C-5-HT uptake at the highest dose examined ([1]; i.p.): 36%
–	–	CN(C)C/C=C(/c1ccc(Br)cc1)c1cccnc1 [4-Br CH3 Z, (Z)-3-(4-bromophenyl)-N,N-dimethyl-3-(3-pyridyl)allylamine, reference compound]	49 µmol/kg	> 98 µmol/kg	Percentage inhibition of ^3 H-NA uptake at the highest dose examined ([2]; i.p.): 26%
–	–	CNC/C=C(\c1ccc(Br)cc1)c1cccnc1 [4-Br H E, reference compound]	102 µmol/kg	25 µmol/kg	–
–	–	CNC/C=C(/c1ccc(Br)cc1)c1cccnc1 [4-Br H Z, reference compound]	15 µmol/kg	> 101 µmol/kg	Percentage inhibition of ^3 H-NA uptake at the highest dose examined ([2]; i.p.): 38%
5.96	5.96	CN(C)C/C=C(/c1ccc(Cl)cc1)c1cccnc1 [Example 2, (Z)-3-(4-chlorophenyl)-N,N-dimethyl-3-(3-pyridyl)allylamine oxalate]	34 µmol/kg	46 µmol/kg	–
–	–	CNC/C=C(/c1ccc(Cl)cc1)c1cccnc1.O=C(O)C(=O)O [Example 3, (Z)-3-(4-Chlorophenyl)-N-methyl-3-(3-pyridyl)allylamine oxalate]	19 µmol/kg	23 µmol/kg	–
–	–	CN(C)CC=C(c1ccc(F)cc1)c1cccnc1 [Example 4, 3-(4-Fluorophenyl)-N,N-dimethyl-3-(3-pyridyl)allylamine oxalate]	115 µmol/kg	72 µmol/kg	–
–	–	CNCC=C(c1ccc(F)cc1)c1cccnc1 [Example 5, 3-(4-Fluorophenyl)-N-methyl-3-(3-pyridyl)allylamine oxalate]	72 µmol/kg	29 µmol/kg	–
5.38	5.66	CN(C)C/C=C(\c1cccnc1)c1ccccc1Br [Example 6, (E)-3-(2-Bromophenyl)-N,N-dimethyl-3-(3-pyridyl)allylamine oxalate]	> 98 µmol/kg	37 µmol/kg	–
6.22	6.52	CNC/C=C(\c1cccnc1)c1ccccc1Br [Example 7, (E)-3-(2-Bromophenyl)-N-methyl-3-(3-pyridyl)allylamine oxalate]	102 µmol/kg	20 µmol/kg	–
5.85	6.05	CNC/C=C(\c1cccnc1)c1cccc(Br)c1 [Example 8, (Z)-3-(3-Bromophenyl)-N-methyl-3-(3-pyridyl)allylamine oxalate]	> 102 µmol/kg	58 µmol/kg	–
–	–	CN(C)C/C=C(\c1cccnc1)c1ccc(Cl)cc1Cl [Example 9, (E)-3-(2,4-Dichlorophenyl)-N,N-dimethyl-3-(3-pyridyl)allylamine oxalate]	43 µmol/kg	> 101 µmol/kg	–
6.30	5.64	CNC/C=C(\c1cccnc1)c1ccc(Cl)cc1Cl [Example 10, (E)-3-(2,4-Dichlorophenyl)-N-methyl-3-(3-pyridyl)allylamine oxalate]	18 µmol/kg	73 µmol/kg	–
–	–	CN(C)C/C=C(\c1cccnc1)c1cccc(Br)c1 [Example 12, 3-(3-Bromophenyl)-N,N-dimethyl-3-(3-pyridyl)allylamine oxalate]	> 98 µmol/kg	66 µmol/kg	–
–	–	CN(C)CCCN1c2ccccc2CCc2ccccc21 [Imipramine, reference compound]	–	–	ED50 [1]: 125 µmol/kg; ED50 [2]: 63 µmol/kg

Structure (SMILES)	pEC50 [3]	pEC50 [4]	ED50 [1, 5]	ED50 [2, 5]	further results
CNCC=C(c1cccnc1)c1ccccc1Br [2-Br H E/Z 1:1, 3-(2-bromophenyl)-N-methyl-3-(3-pyridyl)-allylamine]	5.82	5.85	> 132 µmol/kg	–	ED50 [2]: 63 µmol/kg
CN(C)C/C=C(\c1cccnc1)c1cccc(Cl)c1.O=C(O)C(=O)O [Example 1, (Z)-3-(3-chlorophenyl)-N,N-dimethyl-3-(3-pyridyl)allylamine oxalate]	5.57	5.00	> 110 µmol/kg	> 110 µmol/kg	Percentage inhibition of ^14 C-5-HT uptake at the highest dose examined ([1]; i.p.): 12%; Percentage inhibition of ^3 H-NA uptake at the highest dose examined ([2]; i.p.): 41%
CN(C)C/C=C(/c1ccc(I)cc1)c1cccnc1.O=C(O)C(=O)O [Example 11, (Z)-3-(4-iodophenyl)-N,N-dimethyl-3-(3-pyridyl)allylamine oxalate]	5.89	< 4.66	46 µmol/kg	> 88 µmol/kg	selectivity of the uptake inhibition (5-HT versus NA), in words ([3]; 5-HT versus NA uptake, brain slices): completely selective inhibitor of the 5-HT uptake; Percentage inhibition of ^3 H-NA uptake at the highest dose examined ([2]; i.p.): 0%; Percentage inhibition of ^3 H-NA uptake at the highest concentration examined ([4]; at the highest concentration examined (the > value, μM)): 33%
